Results on 42 compounds are retold here after US6277867A, “Pesticide compounds, compositions and process for the preparation thereof” (priority 1995, dated 2001).

In series [1] the test system is house fly (Musca domestica). To be noted: in vivo, topical_or_ocular, 1440 min. On the procedure: Investigation of Synergistic Activity on House Fly (Musca domestica) Following Topical Application
In two parallel experiments 10 female. 2-4 day old house flies were treated on the vental side of their thorax with 0.2 μl of the test solution, with the help of Hamilton MicroLab P microdispenser. Beside fixed synergist dose of 1000 ng/fly the animals were treated with carbofuran at a dose of 20 ng/fly. For solvent cellosolve was used. Selection and counting of the flies were performed under the action of CO2. After treatment the flies were kept in plastic cups covered with tulle. Mortality after 24 hours was expressed in %.

Series [2] deals with cotton bollworm (Helicoverpa armigera). Nature of the series: Synergistic activity on cotton bollworm following topical application. To be noted: in vivo. The method, then: Investigation of Synergistic Activity on Cotton Bollworm (Helicoverpa armigera) Following Topical Application
Treatment was performed similarity as described in Example 1. but L2 stadium grubs of cotton bollworms (Helicoverpa armigera) were treated as test animals. From the 24 hour dose--mortality data the LD50 (ng/grub) values were determined using probit analysis. None of the synergists acted at the applied 1000 ng/grub dose. Synergist ratio was calculated as the quotient of the LD50 values of carbofuran administered alone, and with the synergist. The experiments were performed in 2-4 replica.

The subject of the next series is flies. Nature of the series: Comparative investigations with known reference synergists on flies treated with carbofuran. To be noted: flies treated with carbofuran and 1000 ng of the synergist. Format: in vivo. From the text: These SR50 ratios were compared to those of the new compounds prepared by us.
Series [3] has as its system house fly (Musca domestica). In words: Effect of the active ingredient:synergist ratio on the synergistic activity (flies). The method, then:
Effect of the Active Ingredient:Synergist Ratio on the Synergistic Activity
Treatment was performed as described in Example 1. using Hamilton MicroLab P microdispenser. In two parallel experiments 10 female -3 day old flies were treated on the ventral side of their thorax with 0.2 μl test solution. Beside 1000-400-200-80 ng/fly fixed doses of the synergist they were treated with constant 20 ng/fly CARBOFURAN®. Selection and counting of the flies were performed under the action of CO2. After treatment the flies were kept in plastic cups covered with tulle. After 24 hours mortality % was recorded. Depending on the results the experiments were performed in 2-4 replica.

Series [4] concerns resistant house fly, INSEL strain. Nature of the series: Synergistic activity on resistant house fly, INSEL strain. Format: in vivo, Musca domestica. To be noted: active ingredient alone. On the procedure: Investigation of Synergistic Activity on Resistant House Fly (Musca domestica) Populations
Investigation was carried out as described in biological Example 1. LD50 values and synergist ratios were determined as given in Example 2.

Where [5] appears, read: carbofuran 20 ng/fly + synergist 80 ng/fly.
Where [6] appears, read: carbofuran 20 ng/fly + synergist 200 ng/fly.
The mark [7] stands for this setting: carbofuran 20 ng/fly + synergist 400 ng/fly.
Setting [8] is: house fly, in vivo, topical_or_ocular.

As for `CC#CCNC(=O)c1ccc2ccccc2c1` [Compound 535, N-(2-Butynyl)-2-naphthamide], the mortality % in series [1] is 27%. Also, in series [2], the Synergist ratio was more than 5. As for `CC#CCNC(=O)c1cccc2ccccc12` [Compound 542, N-(2-Butynyl)-1-naphthamide], the mortality % in series [1] came out at 42%. The Synergist ratio in series [2] was more than 5.

For `CC#CCOc1ccc2ccccc2c1` [2-naphthyl 2-butynyl ether], in the series on flies, the “Synergist ratio SR50” value came out at 7.72. Regarding `C#CCOC(=O)c1cccc2ccccc12` [2-propynyll-naphthyl-carboxylate], in the series with flies, the “Synergist ratio SR50” value is recorded as 4.11.

Consider `CC#CCOC(C)c1cccc2ccccc12` (stereo not shown) [Compound 292, 1-[1-(2-butynyloxy)-ethyl]-naphthalene], for which, in series [1], the mortality % is 72%. The Synergist ratio in series [2] was more than 5. Taken in the same sequence, the figures for `C#CCO[C@@H](C)c1ccc2ccccc2c1` [Compound 474, S-(-)-2-[1-(2-propynyloxy)-ethyl]-naphthalene] were 50% and more than 5.

With `CC#CCO[C@H](C)c1ccc2ccccc2c1` [Compound 455, R-(+)-2-[1-(2-butynyloxy)-ethyl]-naphthalene], in series [1], the mortality % was determined as 70%. Also, the Synergist ratio in series [2] is reported as more than 5. The “24 hour mortality (%)” value in series [3] (setting [5]) is recorded as 25%; in series [3] (setting [6]), 48%; in series [3] (setting [7]), 63%; in series [3] (setting [8]) it was 77%. With `C#CCON=C(C)c1cccc2ccccc12` [1-acetonaphthon-oxim (2-propynyl) ether], in the series with flies, the “Synergist ratio SR50” value is reported as 7.79.

As to `C#CCOCc1c(Cl)cccc1Cl` [(2,6-dichlorophenyl)methyl 2-propynyl ether], the “Synergist ratio SR50” value in the series with flies is given as 20.92. As for `CC#CCNC(=O)c1ccc2c(c1)OCO2` [Compound 523, N-(2-butynyl) 3,4-methylene-dioxy-benzamide], in series [1], the mortality % is 17%. Moreover, the Synergist ratio in series [2] was more than 5.

As to `CC#CCOCC1COc2ccccc2O1` (stereo not shown) [Compound 510, 2-[(2-Butynyloxy)-methyl]-1,4-benzodioxane], the mortality % in series [1] is on record as 75%. For the same compound, the Synergist ratio in series [2] is more than 5. The “Synergist ratio SR50” value in the series on flies stood at 18.32. Take `C#CCOCc1ccc(OC)c(OC)c1` [(2-propynyloxy-methyl)-3,4-dimethoxy-benzene]: the “Synergist ratio SR50” value in the series on flies is recorded as 6.58. For the compound `C#CCOc1cccc2ccccc12` [1-naphthyl 2-propargyl ether], the “Synergist ratio SR50” value in the series on flies is reported as 6.52. In the case of `CC#CCON=C(C)c1ccc(OC)c(OC)c1` [Compound 572, 3,4-Dimethoxy-acetophenonoxym-(2-butynyl)-ether], the mortality % in series [1] is listed as 55%. Moreover, the Synergist ratio in series [2] is on record as more than 5. `CC#CCOC(CC)c1cccc2ccccc12` (stereo not shown) [Compound 454, 1-[1-(2-butynyloxy)-propyl]-naphthalene]: the mortality % in series [1] is 75%. For the same compound, the Synergist ratio in series [2] is listed as more than 5. The “24 hour mortality (%)” value in series [3] (setting [5]) was 40%; in series [3] (setting [6]) it was 45%; in series [3] (setting [7]), 60%; in series [3] (setting [8]), 75%. `C#CCOCC1COc2ccccc2O1` (stereo not shown) [2-[(2-propynyloxy)methyl]-1,4-benzodioxane]: in the series with flies, the “Synergist ratio SR50” value is recorded as 5.58. For `C#CCNC(=O)c1cccc2ccccc12` [Compound 541, N-(2-Propynyl)-1-naphthamide], the mortality % in series [1] is listed as 46%. Moreover, in series [2], the Synergist ratio is listed as more than 5. Regarding `C#CCN(C)C(C)c1ccc2ccccc2c1` (stereo not drawn) [Compound 251, N-α-dimethyl-N-2-propynyl-β-naphthyl-methylamine], the mortality % in series [1] came to 37%. Besides, the Synergist ratio in series [2] is more than 5. On to `CC#CCOC(C)c1ccc2ccccc2c1` (stereo not shown) [Compound 293, 2-[1-(2-butynyloxy)-ethyl]-naphthalene], for which the mortality % in series [1] is listed as 45%. Moreover, the Synergist ratio in series [2] is given as more than 5. As for `C=CCC1=C(C)[C@@H](OC(=O)[C@@H]2[C@@H](C=C(C)C)C2(C)C)CC1=O` [ESBIOL, reference compound], the LD50 in series [4] came out at 10653 ng/fly. As for `C#CCCOc1cccc2ccccc12` [1-naphthyl 3-butynyl ether], the “Synergist ratio SR50” value in the series on flies came to 7.95. For the compound `C#CC(C)OCc1cccc2ccccc12` (stereo not shown) [Compound 389], the mortality % in series [1] is 27%. Also, in series [2], the Synergist ratio is more than 5. Take `C#CCCOc1cccc2c1OC(C)(C)C2` [Compound 377, 2,3-dihydro, 2,2-dimethyl-7-(3-butynyloxy)-benzofuran]: the mortality % in series [1] is on record as 57%. Also, in series [2], the Synergist ratio is reported as more than 5. As to `CC#CCOC(c1ccccc1)c1ccc2c(c1)OCO2` (stereo not shown) [Compound 555, 5-[(But-2-ynyloxy)-phenyl-methyl]-1,3-benzodioxole], the mortality % in series [1] is reported as 90%. For the same compound, the Synergist ratio in series [2] is given as more than 5.

`CC#CCCOc1ccc([N+](=O)[O-])cc1` [Compound 540, 1-(3-pentynyloxy)-4-nitro-benzene]: in series [1], the mortality % stood at 60%. Besides, the Synergist ratio in series [2] is more than 5. With “5-[(2-propynyl)-methyl]-1,3-benzodioxole”, the “Synergist ratio SR50” value in the series with flies turned out to be 10.60. For the compound `C#CCOc1cccc2c1OC(C)(C)C2` [2,3-dihydro-2,2-dimethyl-7-(2-propynyloxy)benzofurane], the “Synergist ratio SR50” value with flies was found to be 1.8. Take `CC#CCOC(c1cccc2ccccc12)C(C)C` (stereo not shown) [Compound 472, 1-[2-methyl-1-(2-butynyloxy)-propyl]-naphthalene]: in series [1], the mortality % amounted to 68%. The Synergist ratio in series [2] is on record as more than 5. In the case of `C#CCOC(C)c1ccc2ccccc2c1` (stereo not shown) [Compound 256, 2-[1-(2-propynyloxy)-ethyl]-naphthalene], the mortality % in series [1] is 32%. Also, in series [2], the Synergist ratio is more than 5.

Take `C#CCOC(=O)c1ccc2c(c1)OCO2` [Compound 501, 2-Propynyl 1,3-benzodioxol-5-carboxylate]: in series [1], the mortality % worked out at 53%. Besides, the Synergist ratio in series [2] is more than 5. Further, the “24 hour mortality (%)” value in series [3] (setting [5]) worked out at 60%; in series [3] (setting [6]), 75%; in series [3] (setting [7]), 80%; in series [3] (setting [8]), 80%.

On to `C#CCO[C@H](C)c1ccc2ccccc2c1` [Compound 475, R-(+)-2-1[1-(2-propynyloxy)-ethyl]-naphthalene], for which, in series [1], the mortality % is recorded as 47%. Further, the Synergist ratio in series [2] is more than 5.

Consider `CC#CCOCC1Cc2ccccc2O1` (stereo not shown) [Compound 539, 2-(2-butynyloxy-methyl)-2,3-dihydro-benzofuran], for which, in series [1], the mortality % amounted to 48%. The Synergist ratio in series [2] is more than 5. Turning to `CC#CCO[C@@H](C)c1ccc2ccccc2c1` [Compound 456, S-(-)-2-[1-(2-butynyloxy)-ethyl]-naphthalene], the mortality % in series [1] is on record as 47%. Also, the Synergist ratio in series [2] was more than 5. On to `CC#CCOC(c1ccc2c(c1)OCO2)C1CCCCC1` (stereo not shown) [Compound 554, 5-[(But-2-ynyloxy)-cyclohexyl-methyl]-1,3-benzodioxole], for which the mortality % in series [1] is given as 58%. The Synergist ratio in series [2] was more than 5.

As to `CC#CCOC1CCc2ccccc21` (stereo not shown) [Compound 479, 1-(2-Butynyloxy)-indane], the mortality % in series [1] was found to be 58%. Further, the Synergist ratio in series [2] is more than 5.

On to `CC#CCCOc1ccc2ccccc2c1` [2-naphthyl 3-pentynyl ether], for which the “Synergist ratio SR50” value with flies was 9.97. In the case of `C#CCCOc1ccc([N+](=O)[O-])cc1` [Compound 547, 1-(3-butynyloxy)-4-nitro-benzene], the mortality % in series [1] was found to be 47%. Turning to `CC#CCO[C@H](C)c1cccc2ccccc12` [Compound 331, R-(+)-1-[1-(2-butynyloxy)-ethyl]-naphthalene], the mortality % in series [1] is 72%. Further, in series [2], the Synergist ratio is more than 5.

Turning to `CC#CCOC1CCCc2ccccc21` (stereo not shown) [Compound 498, 1-(2-Butynyloxy)-1,2,3,4-tetrahydro-naphthalene], the mortality % in series [1] is recorded as 70%. The Synergist ratio in series [2] is listed as more than 5.

`CC#CCO[C@@H](C)c1cccc2ccccc12` [Compound 330, S-(-)-1-[1-(2-butynyloxy)-ethyl]-naphthalene]: the mortality % in series [1] turned out to be 62%. Further, the Synergist ratio in series [2] was more than 5.

Consider `CC#CCN1C(=O)c2ccccc2C1=O` [Compound 537, N-(But-2-ynyl)-phthalimide], for which the Synergist ratio in series [2] was more than 5. Turning to `C#CCOCc1cccc2ccccc12` [1-naphthylmethyl 2-propynyl ether], in the series on flies, the “Synergist ratio SR50” value is 5.28.
